According to US6844364B2, “Stabilization of retinoid compounds” (Johnson & Johnson Consumer Companies, Inc., priority 2001, dated 2005):

Assay type: physicochemical
Description: Finsolv® TN is a C12-15 alkyl benzoate from Fintex, Inc. (Elmwood Park, N.J.) Miglyol® 812 from Huls AG (Marl, Germany) and Neobee® 1053 from Stepan Company (Northfield, Ill.) are each a caprylic/capric triglyceride.
The general procedure to prepare the above formulations is as follows. A 500 mg of Compound 1 was weighed and transferred into an 800 ml glass beaker containing 500 g of one of the above carriers. The formulation was then stirred with a paddle mixer (stirrer type RZR50 from Caframo in Wiarton, Ontario, Canada) at 100 RPM setting until the compound was completely dissolved/dispersed in the carrier.
About 20 g each of the resulting formulations were then packed into 24 clear glass scintillation vials of 20 ml volume (Wheaton Disposable Scintillation Vials from Wheaton Scientific in Milleville, N.J.) and labeled. Groups of eight of such vials were then stored at 4° C., RT (22° C.) and/or 40° C. for stability studies.
The samples of the formulations at each of the above three temperatures were then periodically analyzed for the chemical stability of Compound 1. The compound was assayed using high performance liquid chromatographic (HPLC) system. The results of this analysis is set forth in Table 2 setting forth the amount of Compound 1 remaining in the formulation following a certain number of days at specified temperatures.

Question: For CCCCCc1cc2c(cc1C(=O)Oc1ccc(C(=O)O)cn1)C(C)(C)CCC2(C)C [Compound I], which “Stabilization of the compound in topical liquid or semisolid pharmaceutical formulations” value is on record?
Answer: Its value is “None of these formulations, however, were capable of sufficiently stabilizing the compound”.
